# Assay results from US10086074B2, “Compositions and method for light triggered release of materials from nanovesicles” (The Research Foundation for The State University of New York, priority 2012, dated 2018).
# Test system: Panc-1 xenografts
# Assay: Liposomal release from tumors following intratumoral administration
# Assay type: in vivo, nude mice
# Details: 2 hours following injection, 5 nmol
# Experimental: FIG. 13. Example of spatial and temporal control of PoP-liposome permeabilization a) Spatial control of B. subtilis killing with triggered antibiotic release. Gentamicin was loaded in PoP-liposomes and embedded in hot agar along with the bacteria. The indicated spot was irradiated with a 658 nm laser (200 mW/cm^2) for 10 minutes and the plates were photographed 24 hours later. b) Temporal control of cargo release in Panc-1 xenografts. Mice were imaged following intratumoral injection of 5 nmol of either free sulforhodamine B or sulforhodamine B entrapped at self-quenching concentrations in PoP-liposomes. Representative images are shown of the indicated time points and conditions. Laser activation was performed after 2 hours. Representative results shown with n=3 mice per treatment group.
# Liposomal release from tumors following intratumoral administration: Panc-1 tumors were grown by injecting 20 g female nude mice (Charles River) with 3×10^6 Panc-1 cells in a 1:1 matrigel dilution (BD Biosciences) in the hind flank of the mice. Following several weeks of growth, the tumors were carefully injected intratumorally with sulforhodamine B-PoP-liposomes. Images were acquired with an in vivo fluorescence imager (IVIS Lumina II) at the indicated time points with the mice under isoflurane-induced anesthesia. […]
smiles,measurement,value
"CCN(CC)c1ccc2c(-c3ccc(S(=O)(=O)O)cc3S(=O)(=O)[O-])c3ccc(=[N+](CC)CC)cc-3oc2c1 [free rhodamine, sulforhodamine B]",fluorescence in tumor after intratumoral injection,little fluorescence remaining in the tumor
